Literature values as cited in article PMC7904743, “WIDOCK: a reactive docking protocol for virtual screening of covalent inhibitors” (Journal of Computer-Aided Molecular Design, 2021).
Read-outs that look alike come from different tables or passages of the source.

Legend:
OTUB2 = settings: experimental actives if % labeling higher than 50%; cited from earlier work
NUDT7 = settings: protein labeling at 200 μM; experimental actives if % labeling higher than 50%; cited from earlier work
[1] = thiol reactivity, cited from earlier work
[2] = natural log of average rate constant k
[3] = natural logarithm of average rate constant

Structure (SMILES)	OTUB2 % labeling (OTUB2)	NUDT7 % labeling (NUDT7)	ln(avg k) [1, 2]	ln(avg k) [1, 3]
N#Cc1c(NC(=O)CCl)sc2c1CCCCC2 [PCM-0102286, N#Cc1c(NC(=O)CCl)sc2c1CCCCC2]	0%	33%	-16.020	-16.020
O=C(CCl)N1CCN(Cc2cccc3ccccc23)CC1 [PCM-0102287, O=C(CCl)N1CCN(Cc2cccc3ccccc23)CC1]	29%	0%	-15.635	-15.635
O=C(CCl)Nc1cc(Cl)ccc1Cl [PCM-0102288, O=C(CCl)Nc1cc(Cl)ccc1Cl]	0%	6%	-16.095	-16.095
O=C(CCl)Nc1cccc(C(F)(F)F)c1 [PCM-0102290, O=C(CCl)Nc1cccc(C(F)(F)F)c1]	26%	12%	-15.516	-15.516
O=C(CCl)NC1CS(=O)(=O)CC1Cl (stereo not shown) [PCM-0102291, O=C(CCl)NC1CS(=O)(=O)CC1Cl]	0%	12%	-16.221	-16.221
CC1CCCCC1NC(=O)NC(=O)CCl (stereo not shown) [PCM-0102292, CC1CCCCC1NC(=O)NC(=O)CCl]	24%	0%	-15.785	-15.785
O=C(CCl)N1CCSC1c1ccccc1F (stereo not shown) [PCM-0102293, O=C(CCl)N1CCSC1c1ccccc1F]	12%	83%	-15.618	-15.618
O=C(CCl)Nc1nc2ccc(F)cc2s1 [PCM-0102294, O=C(CCl)Nc1nc2ccc(F)cc2s1]	0%	89%	-15.413	-15.413
O=C(CCl)N1N=C(c2cccs2)CC1c1ccco1 (stereo not shown) [PCM-0102295, O=C(CCl)N1N=C(c2cccs2)CC1c1ccco1]	6%	46%	-14.545	-14.545
Cn1nc(-c2ccc(Cl)cc2)cc1NC(=O)CCl [PCM-0102296, Cn1nc(-c2ccc(Cl)cc2)cc1NC(=O)CCl]	38%	54%	-15.558	-15.558
O=C(CCl)N1CCN(c2ccccc2Cl)CC1 [PCM-0102297, O=C(CCl)N1CCN(c2ccccc2Cl)CC1]	0%	35%	-14.978	-14.978
O=C(CCl)N1CCCC1c1ccc2c(c1)OCCO2 (stereo not shown) [PCM-0102298, O=C(CCl)N1CCCC1c1ccc2c(c1)OCCO2]	0%	100%	-15.407	-15.407
O=C(CCl)Nc1cc2c(cc1Br)OCCO2 [PCM-0102299, O=C(CCl)Nc1cc2c(cc1Br)OCCO2]	67%	27%	-16.302	-16.302
CCc1cc(C(=O)NNC(=O)CCl)sc1C [PCM-0102300, CCc1cc(C(=O)NNC(=O)CCl)sc1C]	83%	11%	-17.034	-17.034
CC(C)(C)NC(=O)CN1CCN(C(=O)CCl)CC1 [PCM-0102302, CC(C)(C)NC(=O)CN1CCN(C(=O)CCl)CC1]	13%	8%	-15.639	-15.639
CN(C)C(=O)CN1CCN(C(=O)CCl)CC1 [PCM-0102304, CN(C)C(=O)CN1CCN(C(=O)CCl)CC1]	0%	0%	-16.500	-16.500
Cc1cc(CNC(=O)CCl)ccc1F [PCM-0102305, Cc1cc(CNC(=O)CCl)ccc1F]	59%	0%	-16.230	-16.230
O=C(CCl)N1CCN(C(=O)c2cccs2)CC1 [PCM-0102306, O=C(CCl)N1CCN(C(=O)c2cccs2)CC1]	0%	0%	-15.421	-15.421
O=C(CCl)Nc1ccccc1C(=O)O [PCM-0102307, O=C(CCl)Nc1ccccc1C(=O)O]	0%	0%	-17.138	-17.138
O=C(CCl)NC(=O)Nc1ccc(Br)cc1 [PCM-0102308, O=C(CCl)NC(=O)Nc1ccc(Br)cc1]	10%	17%	-16.949	-16.949
CN1C(=O)c2ccc(NC(=O)CCl)cc2C1=O [PCM-0102309, CN1C(=O)c2ccc(NC(=O)CCl)cc2C1=O]	19%	12%	-15.418	-15.418
CC(=O)NNC(=O)CCl [PCM-0102310, CC(=O)NNC(=O)CCl]	18%	0%	-16.812	-16.812

Structure (SMILES)	OTUB2 % labeling (OTUB2)	NUDT7 % labeling (NUDT7)	ln(avg k) [1, 2]	ln(avg k) [1, 3]
O=C(CCl)Nc1cc2ccccc2cc1C(=O)O [PCM-0102311, O=C(CCl)Nc1cc2ccccc2cc1C(=O)O]	10%	17%	-15.248	-15.248
O=C(CCl)Nc1ccccc1Br [PCM-0102312, O=C(CCl)Nc1ccccc1Br]	0%	15%	-16.261	-16.261
O=C(CCl)N(C1CCCC1)C1CCS(=O)(=O)C1 (stereo not shown) [PCM-0102313, O=C(CCl)N(C1CCCC1)C1CCS(=O)(=O)C1]	0%	11%	-15.397	-15.397
NC(=O)c1ccsc1NC(=O)CCl [PCM-0102314, NC(=O)c1ccsc1NC(=O)CCl]	0%	18%	-15.717	-15.717
CC1(C)C2CCC1(C)C(NC(=O)CCl)C2 (stereo not shown) [PCM-0102315, CC1(C)C2CCC1(C)C(NC(=O)CCl)C2]	0%	0%	-16.417	-16.417
O=C(CCl)Nc1ccc(Cl)c([N+](=O)[O-])c1 [PCM-0102316, O=C(CCl)Nc1ccc(Cl)c([N+](=O)[O-])c1]	36%	28%	-15.463	-15.463
COc1cc2c(cc1OC)CN(C(=O)CCl)CC2 [PCM-0102317, COc1cc2c(cc1OC)CN(C(=O)CCl)CC2]	14%	10%	-14.822	-14.822
Cc1ccc(NC(=O)CCl)cc1 [PCM-0102320, Cc1ccc(NC(=O)CCl)cc1]	24%	0%	-16.011	-16.011
O=C(CCl)Nc1ccc(C(F)(F)F)cc1 [PCM-0102323, O=C(CCl)Nc1ccc(C(F)(F)F)cc1]	17%	7%	-15.637	-15.637
COc1ccc2c(c1)CCCN2C(=O)CCl [PCM-0102325, COc1ccc2c(c1)CCCN2C(=O)CCl]	0%	12%	-15.257	-15.257
O=C(CCl)N1CCN(S(=O)(=O)c2cccc(F)c2)CC1 [PCM-0102327, O=C(CCl)N1CCN(S(=O)(=O)c2cccc(F)c2)CC1]	0%	13%	-15.130	-15.130
O=C(CCl)Nc1ccc(F)c(F)c1 [PCM-0102328, O=C(CCl)Nc1ccc(F)c(F)c1]	31%	0%	-15.726	-15.726
COc1ccc2nc(NC(=O)CCl)sc2c1 [PCM-0102330, COc1ccc2nc(NC(=O)CCl)sc2c1]	0%	100%	-15.593	-15.593
O=C(CCl)Nc1cc2c(cc1Cl)OCCCO2 [PCM-0102331, O=C(CCl)Nc1cc2c(cc1Cl)OCCCO2]	26%	36%	-16.178	-16.178
CC1CCCC(NC(=O)NC(=O)CCl)C1C (stereo not shown) [PCM-0102332, CC1CCCC(NC(=O)NC(=O)CCl)C1C]	0%	0%	-15.913	-15.913
O=C(CCl)NC(=O)Nc1ccc2c(c1)OCO2 [PCM-0102333, O=C(CCl)NC(=O)Nc1ccc2c(c1)OCO2]	53%	29%	-15.968	-15.968
CC(NC(=O)CCl)c1ccc(Cl)cc1 (stereo not shown) [PCM-0102334, CC(NC(=O)CCl)c1ccc(Cl)cc1]	25%	0%	-16.367	-16.367
CS(=O)(=O)c1ccc(NC(=O)CCl)cc1 [PCM-0102335, CS(=O)(=O)c1ccc(NC(=O)CCl)cc1]	30%	6%	-15.005	-15.005
O=C(CCl)Nc1ccnn1C1CCCC1 [PCM-0102336, O=C(CCl)Nc1ccnn1C1CCCC1]	19%	0%	-15.629	-15.629
Cc1oc(NC(=O)CCl)c(C#N)c1C [PCM-0102337, Cc1oc(NC(=O)CCl)c(C#N)c1C]	45%	0%	-15.944	-15.944
Cc1ccc(NC(=O)CCl)cc1C [PCM-0102339, Cc1ccc(NC(=O)CCl)cc1C]	82%	18%	-15.536	-15.536
